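Following 48 hours of exposure in 96-well plates, responses at five concentrations were used to interpolate endpoints linearly. TGI denotes the concentration required for complete inhibition of growth.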
test system: T-47D breast; test: NCI tumour cell line growth inhibition, 48 h

Compound	TGI
CN(/N=C/c1ccc(OCc2cccc(COc3ccc(C=O)cc3)n2)cc1)c1cnn(-c2ccc(Cl)cc2Cl)c(=O)c1Cl	> 100 µM
CC(C)Oc1ccc2c(c1)OCC1Cc3ccccc3OC21 (configuration not stated)	> 100 µM
O=C1C(Cl)C(c2cccc(Cl)c2)N1c1ccc(-n2c(=S)[nH]c3ccccc3c2=O)cc1 (configuration not stated)	> 100 µM
COc1cc2c(cc1OC)CCc1cc(OC)c(OC)cc1CC2	> 100 µM
c1csc(-c2cc(-c3cccs3)c(-c3ccsc3)s2)c1	> 100 µM
COc1ccc(N2C(=O)C3ON(C(C(N)=O)c4ccccc4)C(c4cc5ccccc5c5ccccc45)C3C2=O)cc1 (configuration not stated)	> 50 µM
COc1ccccc1N1CCN(CCCN2/C(=C(\O)c3ccccc3)C(=O)c3c(C)cc(C)nc3S2(=O)=O)CC1	> 100 µM
NC(CCC(=O)O)C(=O)N1CCN(c2nc(N3CCCC3)c3nc(Cl)c(NCc4ccccc4)nc3n2)CC1 (configuration not stated)	21.3 µM
COC(=O)C(NC(=O)c1ccccc1)c1ccco1 (configuration not stated)	> 100 µM
CN1C2CCC1CC(CCNC(c1ccccc1)c1ccccc1)C2 (configuration not stated)	72.2 µM
c1ccc2c(c1)nc1n2CNC1	> 100 µM
CC1ON2CCCC2[C@H]1C(=O)N1C2CC3CCC2(CS1(=O)=O)C3(C)C (some centres not stated)	> 100 µM
NNc1nncc2n[nH]nc12	> 100 µM

test system: HT29 colon; test: NCI tumour cell line growth inhibition, 48 h

Compound	TGI
CCOC(=O)CN=C1NNS(=O)(=O)c2ccccc21	> 100 µM
Cc1ccc(N=Nc2c(C)c(C#N)c(=S)n(C3OC(CO)C(O)C(O)C3O)c2C)cc1 (configuration not stated)	> 100 µM
COc1cc(/C=C2\N=C(c3ccccc3)N(c3nc4c(OC)ccc(OC)c4s3)C2=O)ccc1O	> 100 µM
O=C(Cc1ccccc1)N/N=C/c1ccccc1O	> 100 µM
COC(=O)C1C(=O)C=CN([C@H](C)c2ccccc2)[C@@H]1Cc1ccc(OC)c(OCc2ccccc2)c1I (some centres not stated)	26.7 µM
CN(C)CCCN1c2ccccc2Sc2cnccc21	> 100 µM
C/C=C(/C)C(=O)O[C@H]1C[C@@H]2[C@@H](O)c3occ(C)c3C[C@]2(C)[C@@H](C)C1	31.1 µM
Cc1cc(C)n(C2OC(CO)C(O)C(O)C2O)c(=S)c1C#N (configuration not stated)	> 100 µM
COC(=O)C(COC(C)=O)NC(=O)/C=C/c1ccc(O)c(OC(C)=O)c1 (configuration not stated)	> 100 µM
O=c1[nH]nc(Cc2ccccc2)[nH]1	> 100 µM
CCOP(=O)(CN1CCNCCNCC1)OCC	> 100 µM
CN(/N=C/c1ccc(OCc2cccc(COc3ccc(C=O)cc3)n2)cc1)c1cnn(-c2ccc(Cl)cc2Cl)c(=O)c1Cl	> 100 µM
CC(C)Oc1ccc2c(c1)OCC1Cc3ccccc3OC21 (configuration not stated)	> 100 µM
O=C1C(Cl)C(c2cccc(Cl)c2)N1c1ccc(-n2c(=S)[nH]c3ccccc3c2=O)cc1 (configuration not stated)	43.3 µM
COc1cc2c(cc1OC)CCc1cc(OC)c(OC)cc1CC2	> 100 µM
c1csc(-c2cc(-c3cccs3)c(-c3ccsc3)s2)c1	> 100 µM
COc1ccc(N2C(=O)C3ON(C(C(N)=O)c4ccccc4)C(c4cc5ccccc5c5ccccc45)C3C2=O)cc1 (configuration not stated)	> 50 µM
COc1ccccc1N1CCN(CCCN2/C(=C(\O)c3ccccc3)C(=O)c3c(C)cc(C)nc3S2(=O)=O)CC1	> 100 µM
NC(CCC(=O)O)C(=O)N1CCN(c2nc(N3CCCC3)c3nc(Cl)c(NCc4ccccc4)nc3n2)CC1 (configuration not stated)	25.5 µM
COC(=O)C(NC(=O)c1ccccc1)c1ccco1 (configuration not stated)	> 100 µM
CN1C2CCC1CC(CCNC(c1ccccc1)c1ccccc1)C2 (configuration not stated)	> 100 µM
c1ccc2c(c1)nc1n2CNC1	> 100 µM
CC1ON2CCCC2[C@H]1C(=O)N1C2CC3CCC2(CS1(=O)=O)C3(C)C (some centres not stated)	> 100 µM
NNc1nncc2n[nH]nc12	> 100 µM

test system: UACC-62 melanoma; test: NCI tumour cell line growth inhibition, 48 h

Compound	TGI
CCOC(=O)CN=C1NNS(=O)(=O)c2ccccc21	> 100 µM
Cc1ccc(N=Nc2c(C)c(C#N)c(=S)n(C3OC(CO)C(O)C(O)C3O)c2C)cc1 (configuration not stated)	29 µM
COc1cc(/C=C2\N=C(c3ccccc3)N(c3nc4c(OC)ccc(OC)c4s3)C2=O)ccc1O	> 100 µM
O=C(Cc1ccccc1)N/N=C/c1ccccc1O	47.9 µM
CC(C)=CC(=O)C[C@H]1C(=O)O[C@@H]2C[C@H]3C(C)=CC(=O)[C@@H](O)[C@]3(C)[C@H]3[C@@]4(O)OC[C@]32[C@@H]1[C@@H](C)[C@H]4O	0.443 µM
COC(=O)C1C(=O)C=CN([C@H](C)c2ccccc2)[C@@H]1Cc1ccc(OC)c(OCc2ccccc2)c1I (some centres not stated)	25.7 µM
CN(C)CCCN1c2ccccc2Sc2cnccc21	> 100 µM
COc1ccc(C2C3=C(Nc4ncnn42)c2ccccc2OC3c2ccccc2)cc1 (configuration not stated)	> 100 µM
C/C=C(/C)C(=O)O[C@H]1C[C@@H]2[C@@H](O)c3occ(C)c3C[C@]2(C)[C@@H](C)C1	27.2 µM
Cc1cc(C)n(C2OC(CO)C(O)C(O)C2O)c(=S)c1C#N (configuration not stated)	> 100 µM
COC(=O)C(COC(C)=O)NC(=O)/C=C/c1ccc(O)c(OC(C)=O)c1 (configuration not stated)	> 100 µM
O=c1[nH]nc(Cc2ccccc2)[nH]1	> 100 µM
CCOP(=O)(CN1CCNCCNCC1)OCC	> 100 µM
CN(/N=C/c1ccc(OCc2cccc(COc3ccc(C=O)cc3)n2)cc1)c1cnn(-c2ccc(Cl)cc2Cl)c(=O)c1Cl	> 100 µM
CC(C)Oc1ccc2c(c1)OCC1Cc3ccccc3OC21 (configuration not stated)	> 100 µM
O=C1C(Cl)C(c2cccc(Cl)c2)N1c1ccc(-n2c(=S)[nH]c3ccccc3c2=O)cc1 (configuration not stated)	31.5 µM
COc1cc2c(cc1OC)CCc1cc(OC)c(OC)cc1CC2	> 100 µM
c1csc(-c2cc(-c3cccs3)c(-c3ccsc3)s2)c1	> 100 µM
COc1ccc(N2C(=O)C3ON(C(C(N)=O)c4ccccc4)C(c4cc5ccccc5c5ccccc45)C3C2=O)cc1 (configuration not stated)	> 50 µM
COc1ccccc1N1CCN(CCCN2/C(=C(\O)c3ccccc3)C(=O)c3c(C)cc(C)nc3S2(=O)=O)CC1	> 100 µM

Source: PubChem BioAssay (NCI)
